Reference: patent US20220362120A1, “STABILIZATION OF RESORCINOL COMPOUNDS IN COSMETIC COMPOSITIONS” (Conopco, Inc., d/b/a UNILEVER, priority 2019, published 2022)

How the values were obtained:
[1] = Color evaluation of 4-alkylresorcinol solutions (visual and L*a*b*, Labscan XE) after 2 weeks at R.T.; format: physicochemical; settings: for Appearance (visual appearance of solution) / L* / b* / a*: after 2 weeks at R.T. (~20-22° C.), DI water:butylene glycol (4:1); for L*: black (L*=0) to white (L*=100); for b*: blue (b*<0) to yellow (b*>0); for a*: green (a*<0) to red (a*>0)
Protocol: Samples for color evaluation were prepared by dissolving 4-hexylresorcinol (200 mg) or 4-ethylresorcinol (200 mg) in DI water:butylene glycol (4:1; 20 ml) to generate a clear colorless homogeneous solution. A portion of each solution (5 ml) was added to a 20 ml scintilation vial containing either niacinamide (B3) (50 mg), AceMet (acetyl methionine) (50 mg) or B3 (50 mg)+AceMet (50 mg) and monitored @ R.T. (˜20-22° C.). After 2 weeks, the color of each solution was assessed visually and L*a*b* measurements determined experimentally using a Labscan XE instrument (Hunter Associates Labs Inc., Reston, Va.) and processed with Universal Software (version 4.10). The L* parameter measures darkness and lightness and ranges from black (L*=0) to white (L*=100). The a* parameter measures color content and intensity ranging from green (a*<0) to neutral grey (a*=0) to red (a*>0). The b* parameter also measures color content and intensity ranging from blue (b*<0) to neutral grey (b*=0) to yellow (b*>0).

[2] = Quantitation of 4-alkyl resorcinols by HPLC (peak area @ 281 nm vs freshly prepared control); format: physicochemical; settings: for 4-Alkylresorcinol (% of control): after 2 weeks at R.T. (~20-22° C.), HPLC, mean of duplicates, DI water:butylene glycol (4:1)
Protocol: The amount of 4-alkylresorcinol present in each of the samples used for the color measurements was quantitated after 2 weeks @ R.T. (˜20-22° C.) by high performance liquid chromatography (HPLC). An sample aliquot (100 uL) from each of the color measurement solutions was diluted with DI water:acetonitrile (1:1, 900 uL) to generate test samples (1 ml). An aliquot (10 uL) from each test sample was injected into a Waters 2695 Separations Module, chromatographed and separated on a Restek Pinnacle DB C18 (5 um, 4.6×150 mm) column operated at 30° C. and the 4-alkylresorcinols monitored using a Waters 2996 Photodiode Array Detector set @ 281 nm. The mobile phase consisted of water (A) and acetonitrile (B) and optimum separation was achieved using a gradient from 95:5 (A:B) to 5:95 (A:B) in 20 min, followed by isocratic elution at 5:95 (A:B) for 3 min at a flow rate of 1 ml/min. The chromatographic data was processed using Empower 2 software (Waters Corporation, Milford, Mass.). Standard control samples of 4-alkylresorcinols at 1×, 5× higher and 5× lower concentrations were prepared fresh and immediately analysed; standard curves were generated within the test sample range and linearity was confirmed.
All samples were analyzed in duplicate and the mean value reported. The amount of 4-alkylresorcinol present for each test sample after 2 weeks was determined by measuring the chromatographic peak area under the curve @ 281 nm for the 4-alkylresorcinol and expressed as the percent ratio over the corresponding chromatographic peak area under the curve @ 281 nm for the freshly prepared control sample.

| SMILES | Appearance (visual appearance of solution) [1] | L* [1] | b* [1] | a* [1] | 4-Alkylresorcinol (% of control) [2] | color of solution ([1]; freshly prepared solution) | decrease of the level of HR ([2]; HR solution after 2 weeks) [%] | decomposition of HR ([2]; HR solution with addition of B3, after 2 weeks) [%] | decomposition upon HPLC analysis ([2]; freshly prepared solution) |
| --- | --- | --- | --- | --- | --- | --- | --- | --- | --- |
| CCc1ccc(O)cc1O [1% ER, 4-ethylresorcinol] | light orange | 82.74 | 39.57 | 6.38 | 96 % of control |  |  |  |  |
| CCCCCCc1ccc(O)cc1O [1% HR, 4-hexylresorcinol] | reddish-pink | 84.77 | 13.4 | 11.4 | 60 % of control | colorless | 40 | 55 | no decomposition |
